Source: US12433936B2, “High-purity adrenocorticotropic hormone analogue and a large-scale preparation method thereof” (Nanjing Hanxin Pharmaceutical Technology Co., Ltd., priority 2021, dated 2025)
pEC50, pIC50: −log10 of the molar value. No end group written: not given here.

Tests used:
[1] = Study of stability, packed samples stored at 2-8° C. for 6 months; assay type: physicochemical; conditions: for Conclusion: Character / Conclusion: Moisture / Conclusion: Polymer / Conclusion: Related substances (maximum single impurity) / Conclusion: The purity of chromatographic: up to 6 months
Experimental: The samples prepared in example 8 were packed in double-layer medical low-density polyethylene bags and a layer of aluminum-plastic composite bags and stored at 2-8° C. for evaluation at 1, 2, 3 and 6 months respectively.
The samples prepared in example 9 were packed in double-layer medical low-density polyethylene bags and a layer of aluminum-plastic composite bags and stored at 2-8° C. for evaluation at 1, 2, 3 and 6 months respectively.

[2] = molecular target: T1, melanocortin receptor 2 (MC2R) (Homo sapiens, UniProt Q01718); test: Activity in vitro: calcium ion signal in CHO-K1 cells expressing MC2R; assay type: cell-based; conditions: for Binding ability to MC2R and biological activity (in words) / Bottom / HillSlope / Top / pEC50: CHO-K1 cells expressing MC2R; for Bottom / HillSlope / Top: curve fit; for Bottom / HillSlope / Top / pEC50: calcium ion signal; for pEC50: read-out: EC50 (half inhibitory concentration)
T1 construct: expressed in transfected cells; host or cells: CHO-K1
Experimental: ACTH was a receptor agonist of melanocortin receptor 2 (MC2R). The combination of ACTH and MC2R could stimulate the signal pathway of the downstream and change the signal factors such as calcium ions and cAMP. The binding ability of ACTH and MC2R was determined by detecting calcium ion signals, and then the cell activity of ACTH in vitro was judged.
The samples in example 8 and example 10 were taken for activity study in vitro. CHO-K1 cells expressing MC2R were cultured in 10 cm vessels and stored at 37° C. and 5% CO2.

[3] = test system: infantile spasticity (IS) rat model; test: Incubation period of spasticity in infantile spasticity (IS) rat model (betamethasone/NMDA); assay type: in vivo, Sprague Dawley (SD) rats
Experimental: (1) Method: To investigate the effect of SEQ ID NO.4 on the incubation period of spasticity in infantile spasticity (IS) rat model.
Incubation period: Time from NMDA injection to onset of spasticity (time is measured in units of seconds).
Sham group: Sprague Dawley (SD) rats were intraperitoneally injected with saline (10 mL/kg each time) at 9:00 am and 19:00 pm respectively on the 15th day of pregnancy, and the neonatal rats (n=12) were intraperitoneally injected with saline of the same volume as the drug group on the 15th day after birth. Model group (IS group): SD rats were intraperitoneally injected with betamethasone (0.4 mg/kg each time) at 9:00 am and 19:00 pm respectively on the 15th day of pregnancy. The neonatal rats (n=12) were intraperitoneally injected with N-methyl-D-aspartic acid (NMDA, 15 mg/kg) at 15:30 pm on the 15th day after birth to establish infant spasticity (neonatal spasticity) rat model, and the incubation period from NMDA injection to spasticity was recorded. […] After the second injection of SEQ ID NO.4 for 30 minutes (i.e. 15:30 pm), NMDA (15 mg/kg) was intraperitoneally injected to establish infant spasticity rat model, and the incubation period from NMDA injection to spasticity was recorded.

hERG = hERG (Homo sapiens, UniProt Q12809); test: in vitro; conditions: human
Text: (§1) The cardiac […] toxicity of drugs was judged by detecting the affinity between drugs and heart receptor protein (hERG) in vitro.

[4] = molecular target: heart receptor protein (hERG) (Homo sapiens, UniProt Q12809); test: in vitro
Text: as §1

T1 sequence (Q01718 whole entry, species assumed): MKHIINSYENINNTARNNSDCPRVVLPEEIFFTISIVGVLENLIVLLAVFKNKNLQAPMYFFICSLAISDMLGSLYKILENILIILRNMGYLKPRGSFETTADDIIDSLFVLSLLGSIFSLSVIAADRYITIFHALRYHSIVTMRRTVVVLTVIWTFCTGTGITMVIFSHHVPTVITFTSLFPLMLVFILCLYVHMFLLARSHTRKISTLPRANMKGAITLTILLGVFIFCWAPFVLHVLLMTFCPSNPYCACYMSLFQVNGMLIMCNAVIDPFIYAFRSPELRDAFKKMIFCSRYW
T1 sequence (Q8TCY5 whole entry partner, species assumed): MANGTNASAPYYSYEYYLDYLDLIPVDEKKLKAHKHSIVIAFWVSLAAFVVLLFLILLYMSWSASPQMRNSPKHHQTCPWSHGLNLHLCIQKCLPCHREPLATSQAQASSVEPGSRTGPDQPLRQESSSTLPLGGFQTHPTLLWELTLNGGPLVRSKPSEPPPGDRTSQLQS
heart receptor protein (hERG), sequence (Q12809 whole entry): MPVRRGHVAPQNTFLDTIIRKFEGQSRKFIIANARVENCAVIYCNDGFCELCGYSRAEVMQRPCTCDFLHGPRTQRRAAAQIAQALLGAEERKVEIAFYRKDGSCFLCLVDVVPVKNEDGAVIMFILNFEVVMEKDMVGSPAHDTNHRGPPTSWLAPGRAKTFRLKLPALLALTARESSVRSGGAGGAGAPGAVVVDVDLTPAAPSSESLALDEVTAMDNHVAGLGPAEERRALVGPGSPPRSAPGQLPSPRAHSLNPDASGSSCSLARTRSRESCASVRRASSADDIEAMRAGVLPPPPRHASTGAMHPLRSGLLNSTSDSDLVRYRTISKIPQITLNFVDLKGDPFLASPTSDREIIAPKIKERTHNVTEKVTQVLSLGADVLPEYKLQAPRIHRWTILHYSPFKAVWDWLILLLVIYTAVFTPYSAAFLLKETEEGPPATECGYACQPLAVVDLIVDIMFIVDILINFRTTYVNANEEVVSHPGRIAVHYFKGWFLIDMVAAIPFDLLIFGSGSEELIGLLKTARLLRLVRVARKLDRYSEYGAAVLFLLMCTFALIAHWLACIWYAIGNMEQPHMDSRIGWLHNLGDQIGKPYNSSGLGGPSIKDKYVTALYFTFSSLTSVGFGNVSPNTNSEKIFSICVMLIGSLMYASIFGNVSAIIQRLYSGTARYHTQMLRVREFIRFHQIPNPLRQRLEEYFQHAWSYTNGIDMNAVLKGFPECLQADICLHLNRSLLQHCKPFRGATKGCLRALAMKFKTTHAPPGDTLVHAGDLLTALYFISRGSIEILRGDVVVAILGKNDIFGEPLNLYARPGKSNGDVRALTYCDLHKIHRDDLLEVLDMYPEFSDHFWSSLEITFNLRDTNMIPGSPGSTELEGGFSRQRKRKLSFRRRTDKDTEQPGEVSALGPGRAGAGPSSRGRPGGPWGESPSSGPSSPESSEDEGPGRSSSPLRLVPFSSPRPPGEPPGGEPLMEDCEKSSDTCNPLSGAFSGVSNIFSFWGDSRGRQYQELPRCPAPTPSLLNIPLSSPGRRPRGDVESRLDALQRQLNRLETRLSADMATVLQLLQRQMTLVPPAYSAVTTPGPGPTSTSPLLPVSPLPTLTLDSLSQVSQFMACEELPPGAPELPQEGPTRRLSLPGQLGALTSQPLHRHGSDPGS
hERG, sequence (Q12809 whole entry): as above

Substance: H-SYSMEHFRWGKPVGKKRRPVKVYPNGAEDESAEAFPLEF-OH [Example 8]
- Character (Visual) ([1]; 2-8° C., 1 month): White
- Moisture, Karl Fischer ([1]; 2-8° C., 1 month): 7.3%
- Polymer (impurity with molecular weight greater than the peptide), HPLC ([1]; 2-8° C., 1 month): 0.05%
- Related substances (maximum single impurity), HPLC ([1]; 2-8° C., 1 month): 0.17%
- Related substances (total impurities), HPLC ([1]; 2-8° C., 1 month): 0.29%
- The purity of chromatographic, HPLC ([1]; 2-8° C., 1 month): 99.71%
- Character (Visual) ([1]; 2-8° C., 2 months): White
- Moisture, Karl Fischer ([1]; 2-8° C., 2 months): 7.5%
- Polymer (impurity with molecular weight greater than the peptide), HPLC ([1]; 2-8° C., 2 months): 0.03%
- Related substances (maximum single impurity), HPLC ([1]; 2-8° C., 2 months): 0.17%
- Related substances (total impurities), HPLC ([1]; 2-8° C., 2 months): 0.29%
- The purity of chromatographic, HPLC ([1]; 2-8° C., 2 months): 99.71%
- Character (Visual) ([1]; 2-8° C., 3 months): White
- Moisture, Karl Fischer ([1]; 2-8° C., 3 months): 8.4%
- Polymer (impurity with molecular weight greater than the peptide), HPLC ([1]; 2-8° C., 3 months): 0.06%
- Related substances (maximum single impurity), HPLC ([1]; 2-8° C., 3 months): 0.16%
- Related substances (total impurities), HPLC ([1]; 2-8° C., 3 months): 0.38%
- The purity of chromatographic, HPLC ([1]; 2-8° C., 3 months): 99.62%
- Character (Visual) ([1]; 2-8° C., 6 months): White
- Moisture, Karl Fischer ([1]; 2-8° C., 6 months): 8.3%
- Polymer (impurity with molecular weight greater than the peptide), HPLC ([1]; 2-8° C., 6 months): 0.04%
- Related substances (maximum single impurity), HPLC ([1]; 2-8° C., 6 months): 0.11%
- Related substances (total impurities), HPLC ([1]; 2-8° C., 6 months): 0.39%
- The purity of chromatographic, HPLC ([1]; 2-8° C., 6 months): 99.61%
- Conclusion: Character ([1]; 2-8° C.): Qualified
- Conclusion: Moisture ([1]; 2-8° C.): Qualified
- Conclusion: Polymer ([1]; 2-8° C.): Qualified
- Conclusion: Related substances (maximum single impurity) ([1]; 2-8° C.): Qualified
- Conclusion: The purity of chromatographic ([1]; 2-8° C.): Qualified
- Character (Visual) ([1]; Start): White
- Moisture, Karl Fischer ([1]; Start): 5.0%
- Polymer (impurity with molecular weight greater than the peptide), HPLC ([1]; Start): 0.03%
- Related substances (maximum single impurity), HPLC ([1]; Start): 0.07%
- Related substances (total impurities), HPLC ([1]; Start): 0.13%
- The purity of chromatographic, HPLC ([1]; Start): 99.88%
- Binding ability to MC2R and biological activity (in words) [2]: had binding ability to melanocortin receptor 2 (MC2R) and showed biological activity
- Bottom [2]: −2.739
- HillSlope [2]: 0.9745
- Top [2]: 100.9
- Activity of high-purity ACTH relative to low-purity ACTH ([2]; ratio of EC50 values): 1.6 times

Substance: H-SYSMEHFRWGKPVGKKRRPVKVYPNGAEDESAEAFPLEF-OH [Example 10, reference compound]
- Binding ability to MC2R and biological activity (in words) [2]: had binding ability to melanocortin receptor 2 (MC2R) and showed biological activity
- Bottom [2]: −1.846
- HillSlope [2]: 1.249
- Top [2]: 94.88

Substance: SYSMEHFRWGKPVGKKRRPVKVYPDGAEDESAEAFPLEF (also: deamidated at N25 (given as D), Asp or isoAsp not given here) [Example 9]
- Incubation period of spasticity vs IS group ([3]; high-dose group 0.28 U/g i.p. twice, neonatal rats day 15, P<0.0001): significantly prolong
- Incubation period of spasticity vs IS group ([3]; low-dose group 0.01 U/g i.p. twice, neonatal rats day 15, p<0.001): significantly prolong
- Character (Visual) ([1]; 2-8° C., 1 month): White
- Moisture, Karl Fischer ([1]; 2-8° C., 1 month): 7.5%
- Polymer (impurity with molecular weight greater than the peptide), HPLC ([1]; 2-8° C., 1 month): 0.04%
- Related substances (maximum single impurity), HPLC ([1]; 2-8° C., 1 month): 0.24%
- Related substances (total impurities), HPLC ([1]; 2-8° C., 1 month): 0.42%
- The purity of chromatographic, HPLC ([1]; 2-8° C., 1 month): 99.58%
- Character (Visual) ([1]; 2-8° C., 2 months): White
- Moisture, Karl Fischer ([1]; 2-8° C., 2 months): 7.6%
- Polymer (impurity with molecular weight greater than the peptide), HPLC ([1]; 2-8° C., 2 months): 0.05%
- Related substances (maximum single impurity), HPLC ([1]; 2-8° C., 2 months): 0.17%
- Related substances (total impurities), HPLC ([1]; 2-8° C., 2 months): 0.43%
- The purity of chromatographic, HPLC ([1]; 2-8° C., 2 months): 99.57%
- Character (Visual) ([1]; 2-8° C., 3 months): White
- Moisture, Karl Fischer ([1]; 2-8° C., 3 months): 8.5%
- Polymer (impurity with molecular weight greater than the peptide), HPLC ([1]; 2-8° C., 3 months): 0.06%
- Related substances (maximum single impurity), HPLC ([1]; 2-8° C., 3 months): 0.27%
- Related substances (total impurities), HPLC ([1]; 2-8° C., 3 months): 0.46%
- The purity of chromatographic, HPLC ([1]; 2-8° C., 3 months): 99.54%
- Character (Visual) ([1]; 2-8° C., 6 months): White
- Moisture, Karl Fischer ([1]; 2-8° C., 6 months): 8.6%
- Polymer (impurity with molecular weight greater than the peptide), HPLC ([1]; 2-8° C., 6 months): 0.06%
- Related substances (maximum single impurity), HPLC ([1]; 2-8° C., 6 months): 0.10%
- Related substances (total impurities), HPLC ([1]; 2-8° C., 6 months): 0.49%
- Stability under the storage condition (in words) ([1]; 2-8° C., 6 months): stable
- The purity of chromatographic, HPLC ([1]; 2-8° C., 6 months): 99.51%
- Conclusion: Character ([1]; 2-8° C.): Qualified
- Conclusion: Moisture ([1]; 2-8° C.): Qualified
- Conclusion: Polymer ([1]; 2-8° C.): Qualified
- Conclusion: Related substances (maximum single impurity) ([1]; 2-8° C.): Qualified
- Conclusion: The purity of chromatographic ([1]; 2-8° C.): Qualified
- Character (Visual) ([1]; Start): White
- Moisture, Karl Fischer ([1]; Start): 5.2%
- Polymer (impurity with molecular weight greater than the peptide), HPLC ([1]; Start): 0.03%
- Related substances (maximum single impurity), HPLC ([1]; Start): 0.16%
- Related substances (total impurities), HPLC ([1]; Start): 0.42%
- The purity of chromatographic, HPLC ([1]; Start): 99.58%

Substance: SYSMEHFRWGKPVGKKRRPVKVYPNGAEDESAEAFPLEF [Example 8]
- Stability under the storage condition (in words) ([1]; 2-8° C., 6 months): stable
- inhibition at 10000 nM (hERG): -1.28%
- Cardiac metabolic toxicity (in words) [4]: no cardiac metabolic toxicity
- pIC50 [4]: < 5.00
- pEC50 [2]: 6.74

Substance: SYSMEHFRWGKPVGKKRRPVKVYPNGAEDESAEAFPLEF [Example 10, reference compound]
- Cardiac metabolic toxicity (in words) [4]: no cardiac metabolic toxicity
- pEC50 [2]: 6.54
